# Test results published in patent publication US8557864B2, “Agent having neurotrophic factor-like activity” (Nagoya Industrial Science Research Institute, priority 2007, dated 2013).
# System: MAP kinases
# Experiment: Measurement of activation of MAP kinases in cultured nerve cells (western immunoblotting)
# Format: cell-based
# Settings: fetal rat cerebral cortex nerve cells, compound 500 μg/ml, 30 minutes, relative to control
# Description: Activation of MAP kinases was measured on respective compounds in Table 1 including the compound obtained in Production Example with western immunoblotting as follows. Nerve cells were dispersed from a cerebral cortex of a 17-day-old fetal rat and the nerve cells were cultured in a Dulbecco's modified eagle medium (DMEM) containing 5%; fetal bovine serum for 1 day. A culture solution was exchanged to a serum-free medium (B27 supplement added Neurobasal, Invitrogen Corporation), and the nerve cells were cultured in a culture petri dish coated with polyornithine at a density of 20,000 to 40,000 cells/cm^2. Three days later, each of the compounds in Table 1 was added thereto, and culture for 30 minutes was continued. Then, cells were recovered on ice with a solution of a Tris-HCL buffer as a base containing a phosphatase inhibitor. The protein concentration of the obtained cell extraction was determined using a BCA Protein Assay Kit (TAKARABIO INC.), a constant amount (3 μg for MAP kinase measurement, 5 μg for phosphorylated MAP kinase measurement) of the protein was electrophoresed with a polyacrylic amide gel. The protein was transcribed to a PVDF membrane from the gel after electrophoresis, and western immunoblotting was carried out using the primary antibodies: an anti-MAP kinase antibody (Cell Signaling Technology, Inc.) and an antiphosphorylated MAP kinase antibody (Cell Signaling Technology, Inc.), respectively. Subsequently, an enzyme activity was subjected to color development by being reacted with the secondary antibody: an alkaline phosphatase labeled anti-rabbit IgG antibody (Promega KK) to measure MAP kinases and phosphorylated MAP kinases. In addition, each compound was dissolved in 0.7% DMSO and adjusted to have a concentration of 500 μg/ml. A control was added with a phosphoric acid buffer containing 0.1% DMSO in the same amount as the compound.
# The above obtained concentration measurement of the electrophoresis gel band was digitalized by calculating an intensity with Image J (BioArts International, Inc.). The numerical value of MAP kinases of each compound was divided by the numerical value of the control's MAP kinases, and the numerical value of phosphorylated MAP kinases of each compound was divided by the numerical value of the control's phosphorylated MAP kinases to find a ratio of the MAP kinases of each compound to the control and a ratio of the phosphorylated MAP kinases of the each compound to the control. Then, the obtained ratio of the phosphorylated MAP kinases to the control was divided by the obtained ratio of the MAP kinases to the control to find a ratio of the phosphorylated MAP kinases to the MAP kinases and graphs were formed and shown in FIGS. 1 to 3. Compound 1, compound 6, compound 11, compound 16, compound 21 and compound 36 in Table 1 were used from products made by Wako Pure Chemical Industries, Ltd.
smiles,measurement,setting,value
"CCCCCCC/C=C/C(=O)OCC [Compound 8, trans-2-decenoic acid ethyl ester]",ratio of phosphorylated MAP kinases to MAP kinases,,twice or more
same,ratio of phosphorylated MAP kinases to MAP kinases,listed as trans-2-decenic acid ethyl ester,11 times
